Assay results from the supplement of paper PMC11208160.

experiment: recombinant UMI read abundance after kanamycin selection (control-corrected) (log10(CPM+1)); higher = more efficient recombination; extreme values may be limits of the assay; sequences stand for … in AGTGCAGAGAAAATCGGCCAGTTTTCTCTGCCTGCAGTCCGCATGCCGTGGGACCCCTTGGGTTCTAACCTGTTGCCTAGATTTATGCAGCGGACTGCCTTTCTCCCAAAGTGATAAACCGG…AGGTTGGTTTCACT; site = the 11-nt donor
Summary of the method: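 The measure is log10(CPM+1) for recombinant UMIs. These were PCR-amplified across the donor–target junction and sequenced after Escherichia coli carrying a donor and donor-binding-loop pair library and a target plasmid with T7-inducible IS621 bridge recombinase was plated on IPTG (0.07 mM) plus kanamycin or unselected. CPM were averaged over two replicates and scaled by control-derived factors.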
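Note: IS621 bridge recombinase in Escherichia coli cells against a fixed T5 target plasmid.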

Sequence | recombinant UMI read abundance (log10)
GTTTTTCCATGGACCGGTTTTCCCGGTAATCCGTATTTGGT (site GTTTTTCCTAC) | 0
ATAGTATCATGGACCGGTTTTCCCGGTAATCCGTATTTGCA (site AAAGTATCTTG) | 2.4
CCTCAGCCATGGACCGGTTTTCCCGGTAATCCGTATTTGGC (site CCTCAGCCTGC) | 0
ATAAGGCCATGGACCGGTTTTCCCGGTAATCCGTATTTGAA (site ATAAGGCCTCT) | 0.0201
CCGGTTACATGGACCGGTTTTCCCGGTAATCCGTATTTGCT (site CCGGTTACTAG) | 0
GGCAAGACATGGACCGGTTTTCCCGGTAATCCGTATTTGCA (site AGGAAGACTTG) | 0
GCTGCTGCATGGACCGGTTTTCCCGGTAATCCGTATTTGCC (site GCTGCTGCTGG) | 1.18
ACTAGAACATGGACCGGTTTTCCCGGTAATCCGTATTTGAC (site ACTAGAACTCT) | 0.0218
CCCTCCTCATGGACCGGTTTTCCCGGTAATCCGTATTTGCC (site CCCTCCTCTGG) | 2.25
GCCAACGCATGGACCGGTTTTCCCGGTAATCCGTATTTGAA (site GCCAACGCTTT) | 1.63
CGGAATCCATGGACCGGTTTTCCCGGTAATCCGTATTTGTT (site CGGCATCCTAC) | 0.011
CGGAATCCATGGACCGGTTTTCCCGGTAATCCGTATTTGTT (site CGGACTCCTCA) | 0.00467
AGGGAGTCATGGACCGGTTTTCCCGGTAATCCGTATTTGCC (site GGGGAGTCTGG) | 0
ATATATGCATGGACCGGTTTTCCCGGTAATCCGTATTTGCT (site ATATATGCTAG) | 2.99
CCCCACACATGGACCGGTTTTCCCGGTAATCCGTATTTGTA (site CCCTACACTTA) | 0.0176
GTAGTCGCATGGACCGGTTTTCCCGGTAATCCGTATTTGCC (site GTAGTCGCTCG) | 0.819
ACCCGAACATGGACCGGTTTTCCCGGTAATCCGTATTTGTC (site ACGCGAACTGA) | 0
ACTTAGACATGGACCGGTTTTCCCGGTAATCCGTATTTGGG (site ACCTAGACTCC) | 0.00452
GCCCACACATGGACCGGTTTTCCCGGTAATCCGTATTTGTA (site ACCCACACTTA) | 1.08
ACATCTACATGGACCGGTTTTCCCGGTAATCCGTATTTGTG (site GCATCTACTCA) | 0.305
AGAAGCACATGGACCGGTTTTCCCGGTAATCCGTATTTGTC (site AGAAGCACTGA) | 3.13
AGTAGAACATGGACCGGTTTTCCCGGTAATCCGTATTTGAG (site AGTAGAACTCT) | 1.24
TAGGGTGCATGGACCGGTTTTCCCGGTAATCCGTATTTGAC (site TAGGGTGCTGT) | 2.6
CCGGTCCCATGGACCGGTTTTCCCGGTAATCCGTATTTGTC (site CCGGTCCCTGA) | 0
ATTACGACATGGACCGGTTTTCCCGGTAATCCGTATTTGGG (site ATTACGACTCC) | 0.00852

Sequence | recombinant UMI read abundance (log10)
CGCCGTACATGGACCGGTTTTCCCGGTAATCCGTATTTGCT (site CGCCATACTAG) | 0.922
TCATATTCATGGACCGGTTTTCCCGGTAATCCGTATTTGCA (site TCATACTCTTG) | 1.3
GAAGTCGCATGGACCGGTTTTCCCGGTAATCCGTATTTGCG (site GCAGTCGCTCG) | 0.0126
AAGTCGACATGGACCGGTTTTCCCGGTAATCCGTATTTGGG (site CAGTCGACTCC) | 0.0471
TCCTCCGCATGGACCGGTTTTCCCGGTAATCCGTATTTGCG (site TCCACCGCTCG) | 0.00517
ATCGGGTCATGGACCGGTTTTCCCGGTAATCCGTATTTGGT (site ATCGGGTCTAC) | 1.85
CGATCATCATGGACCGGTTTTCCCGGTAATCCGTATTTGCT (site CGATCACCTGG) | 0.009
CTTCTCTCATGGACCGGTTTTCCCGGTAATCCGTATTTGTA (site CTTCTCGCTTA) | 0.0131
CGAATAACATGGACCGGTTTTCCCGGTAATCCGTATTTGCC (site CGAATAACTGG) | 0.484
CTTCTCTCATGGACCGGTTTTCCCGGTAATCCGTATTTGTG (site CTTCTCTCTGA) | 0
TTATGAGCATGGACCGGTTTTCCCGGTAATCCGTATTTGGG (site TCATGAGCTCC) | 0.0145
CGGGAGTCATGGACCGGTTTTCCCGGTAATCCGTATTTGCC (site CGGCAGTCTGG) | 0
GGAGATTCATGGACCGGTTTTCCCGGTAATCCGTATTTGTT (site GTAGATTCTAA) | 0
GCTTGCCCATGGACCGGTTTTCCCGGTAATCCGTATTTGCT (site GCTTGCCCTAA) | 0.0261
CTAGCGTCATGGACCGGTTTTCCCGGTAATCCGTATTTGGA (site CTAGCGTCTTC) | 2.45
GGCCATCCATGGACCGGTTTTCCCGGTAATCCGTATTTGAA (site GGCAATCCTTT) | 0.00447
TTCGCGACATGGACCGGTTTTCCCGGTAATCCGTATTTGAA (site TTCGCGACTTT) | 0.0402
CGGAATCCATGGACCGGTTTTCCCGGTAATCCGTATTTGTT (site ACGAATCCTAA) | 0.0109
AATTATGCATGGACCGGTTTTCCCGGTAATCCGTATTTGGA (site AGTTATGCTTC) | 1.09
ATGTTGGCATGGACCGGTTTTCCCGGTAATCCGTATTTGGC (site ATGTAGGCTGC) | 1.71
TCATACTCATGGACCGGTTTTCCCGGTAATCCGTATTTGAA (site TCATACTCTTG) | 0
ACAAGGCCATGGACCGGTTTTCCCGGTAATCCGTATTTGAC (site ACAAGGCCTGT) | 0.512
GCTCGATCATGGACCGGTTTTCCCGGTAATCCGTATTTGCA (site GCTCGATCTTG) | 2.07
CCCCACACATGGACCGGTTTTCCCGGTAATCCGTATTTGTA (site CCCCGCACTTA) | 0.0118
CGTGTATCATGGACCGGTTTTCCCGGTAATCCGTATTTGAC (site CTAGTATCTGT) | 0

Sequence | recombinant UMI read abundance (log10)
TAAAGTCCATGGACCGGTTTTCCCGGTAATCCGTATTTGTA (site TAAAGCCCTTA) | 0.452
AACTCCGCATGGACCGGTTTTCCCGGTAATCCGTATTTGAC (site AACTCCGCTGT) | 1.92
TAATGAGCATGGACCGGTTTTCCCGGTAATCCGTATTTGGG (site TAATGTGCTCC) | 0
AGCTCATCATGGACCGGTTTTCCCGGTAATCCGTATTTGGG (site AGCTCAGCTCC) | 0.0292
CCCGTCTCATGGACCGGTTTTCCCGGTAATCCGTATTTGGG (site CCCGTCTCTCC) | 0.0026
AGAGGACCATGGACCGGTTTTCCCGGTAATCCGTATTTGGG (site TGAGGACCTCC) | 0.0116
TAAGAGACATGGACCGGTTTTCCCGGTAATCCGTATTTGCG (site TTAGAGACTCG) | 1.14
TAAAATCCATGGACCGGTTTTCCCGGTAATCCGTATTTGTA (site TAAATTCCTTA) | 0
CGATCATCATGGACCGGTTTTCCCGGTAATCCGTATTTGTT (site CGATCATCTAC) | 0
AGGAATCCATGGACCGGTTTTCCCGGTAATCCGTATTTGTT (site GGGAATCCTAA) | 0
AATTATGCATGGACCGGTTTTCCCGGTAATCCGTATTTGGA (site ATTTATGCTTC) | 1.25
TAATGAGCATGGACCGGTTTTCCCGGTAATCCGTATTTGGG (site TAGTGAGCTCC) | 0.0336
CGGAGTCCATGGACCGGTTTTCCCGGTAATCCGTATTTGTT (site CGGATTCCTAA) | 0
ACCTAGCCATGGACCGGTTTTCCCGGTAATCCGTATTTGGG (site ACCTAGCCTCC) | 0.00989
AAGCCGCCATGGACCGGTTTTCCCGGTAATCCGTATTTGGC (site AAGCCGCCTGC) | 0
ACCTAGACATGGACCGGTTTTCCCGGTAATCCGTATTTGGC (site ACCTAGACTAC) | 0.532
CCCCTCTCATGGACCGGTTTTCCCGGTAATCCGTATTTGGG (site CCCTTCTCTCC) | 0
GGCCTAGCATGGACCGGTTTTCCCGGTAATCCGTATTTGTT (site TGCCTAGCTAA) | 0.0108
TGCTTGGCATGGACCGGTTTTCCCGGTAATCCGTATTTGGT (site TGCTAGGCTAC) | 0.011
ACATCTACATGGACCGGTTTTCCCGGTAATCCGTATTTGTG (site ACATCTACTGA) | 0
GCGAAGCCATGGACCGGTTTTCCCGGTAATCCGTATTTGGA (site GCGAAGCCTAC) | 0.00917
AGTAGTGCATGGACCGGTTTTCCCGGTAATCCGTATTTGGT (site AATAGTGCTAC) | 0.246
CGGAATCCATGGACCGGTTTTCCCGGTAATCCGTATTTGTT (site AGGAATTCTAA) | 0
GGTCCAACATGGACCGGTTTTCCCGGTAATCCGTATTTGTA (site TGTCCAACTTA) | 0.00249
GCGACATCATGGACCGGTTTTCCCGGTAATCCGTATTTGTG (site GCGACATCTCA) | 1.78
